According to patent US8039670B2, “Analogs of alpha galactosyceramide and uses thereof” (Ludwig Institute for Cancer Research, priority 2005, dated 2011):

Tests used:
human DC = test: DC maturation in co-culture of human DC and iNKT cells (flow cytometry CD83, CD86, CD38); format: cell-based
Experimental: (§1) Different analogs of α-GalCer as indicated or LPS were added to co-cultures of human DC and iNKT cells. (A) Maturation of the DC was assessed after 40 h, gating on CD11c positive cells. Histograms indicate the CD83 and CD86 profiles of DC from different treatments; the percentages indicate the percentage of CD83hi mature DC and the numbers in parenthesis, the mean fluorescence intensity of the population contained within the labeled gate. DC and iNKT cells were co-cultured in the presence of different analogs of α-GalCer for 24 hours. Supernatants were analyzed using ELISA for the presence of (B) IL-12p40 released by the DC and (C) IFN-γ from the iNKT cells. […] Cells were co-cultured in the presence of the indicated concentration of analog and the percentages of DC with increased CD83/CD80 are shown. […] Viability of α-GalCer or analog-pulsed DC was assessed after 40 h co-culture in the presence of iNKT cells by flow cytometry. Cells were stained with propidium iodide and the percentage of live CD11c gated cells remaining in the culture are shown.
(§2) Human monocyte-derived DC were pulsed with 150 ng of different inositol analogs and co-cultured with iNKT cells for 24 h. […] Numbers indicate the mean fluorescence intensity of the histogram gated on CD11c^+ cells.
Immature human DC were cultured in the presence of a human iNKT cell clone with or without analogs or vehicle at different concentrations.
(§3) To compare the functions of high affinity α-GalCer, intermediate affinity threitolceramide with the known, low affinity analog OCH, the three compounds were titrated onto DC and used to present to iNKT cells. Maturation of DC and DC viability were examined after 48 h.

[1] = tested on: IL-12p40 released by the DC; test: IL-12p40 ELISA of supernatants of DC/iNKT co-cultures; format: cell-based, human; details: DC/iNKT co-culture, 24 hours
Experimental: as §1, §2
Release of IL-12p40 (and bioactive p75) by DC is a marker of activation and is thought to play an important role in regulating the profile of the immune response generated in response to those DC (Trinchieri et al, Nat Rev Immunol, 2003, 3; 133-46).

[2] = tested on: IFN-γ from the iNKT cells; test: IFN-γ ELISA of supernatants of DC/iNKT co-cultures; format: cell-based, human; details: analogs presented by DC
Experimental: as §1, §2

IL-4 and IFN-γ = test: Serum cytokines after i.v. injection into mice (ELISA); format: in vivo, C57BL/6 mice
Experimental: C57BL/6 or iNKT^−/− mice were injected i.v. with 1 μg of vehicle, α-GalCer, analog or 25 μg MPL. Twenty hours after injection splenocytes were stained with antibodies against CD11c, B220 and CD86 and analyzed by flow cytometry. (A) Maturation was assessed by the upregulation of CD86 at the cell surface, gating on DC (CD11c^+). Mean fluorescence intensity for each histogram is indicated. These are representative profiles of two independent experiments. 2, 6 and 18-24 h after injection as described, the mice were bled and the serum tested with ELISA for the presence of (B) IL-4 and (C) IFN-γ released in response to the analog.
Stimulation of iNKT cells by α-GalCer in the context of CD1d rapidly induces release of significant levels of a number of cytokines including IFN-γ and IL-4 (Burdin, Brossay et al, J Immunol, 1998, 161; 3271-81), IL-3 and GM-CSF (Leite-de-Moraes, Lisbonne et al, Eur J Immunol, 2002, 32; 1897-904) with other downstream cell-types including DC (Kitamura, Iwakabe et al, J Exp Med, 1999, 189; 1121-8) and NK cells (Carnaud, Lee et al, J Immunol, 1999, 163; 4647-50) being activated.

[3] = tested on: antigen-specific CD8^+ T cells; test: OVA-specific CD8+ T cells after co-injection with OVA ([…]-Kb tetramer); format: in vivo, C57BL/6 mice; details: 1 μg with 800 μg OVA, 6 days
Experimental: (§4) (A) C57BL/6 mice were co-injected with 1 μg α-GalCer or analog and 800 μg OVA. 6 days later blood samples taken from the tail vein were stained directly ex vivo with fluorescent […]-K^b tetramers and an anti-CD8 antibody and analyzed by flow cytometry. Data are shown as tetramer positive cells as a percentage of CD8^+ cells. (B) 7 days after injection, the mice were challenged in a prophylactic setting with 1×10^6 E.G7-OVA tumour cells s.c. and the size of the tumour monitored over subsequent days.
Previously we, and others have shown that co-injection of model antigens such as OVA (Silk, Hermans et al, J Clin Invest, 2004, 114; 1800-11, Fujii, Shimizu et al, J Exp Med, 2003, 198; 267-79, Hermans, Silk et al, J Immunol, 2003, 171; 5140-7) and β-galactosidase (Silk, Hermans et al, J Clin Invest, 2004, 114; 1800-11) together with α-GalCer induces enhanced CD8^+, CD4^+ T cell and B cell responses. These were effective for therapy against tumour cells expressing the target antigen. The various analogs were co-injected with OVA into wild type mice and 6 days later the blood examined for the presence of antigen-specific CD8^+ T cells using fluorescent K^b-[…] tetramers.

E.G7-OVA tumour cells = test: Prophylactic challenge with E.G7-OVA tumour cells after co-injection with OVA; format: in vivo, C57BL/6 mice; details: injected with OVA, challenge 7 days later with 1×10^6 E.G7-OVA s.c.
Experimental: as §4

[4] = tested on: human monocyte derived DCs; test: Example A: DC maturation markers in human monocyte derived DC with NKT cells (FACS); format: cell-based; details: 100 ng/ml, 36 hours, 10 DC/NKT cell
Experimental: The methodology of Salio, et al., J. Immunol., 167:1188-1197 (2001), incorporated by reference, was followed. In brief, 2×105 human monocyte derived DCs were pulsed with 100 ng/ml of one of Compounds 2, 3, αGal-Cer, or vehicle solution, as a control. For DC pulsing, each of arabinitol ceramide (Compound 1), threitol ceramide (Compound 3), glycerol ceramide (Compound 2) and αGal-Cer was solubilized in vehicle solution (0.5% Tween 20/PBS), and added to the medium of the DC cultures. […] After 36 hours, supernatant was removed from cultures and analyzed for the presence of known DC maturation markers CD83, CD80, CD86, CD25, and CD38, all of which were analyzed via FACS, using well known methods.

p40 form of IL-12 = test: Example A: IL-12 p40 ELISA as indication of DC stimulation; format: cell-based, human
OVA specific response = test: Example C: OVA specific CTL response in mice injected with OVA and compound (tetramer); format: in vivo; details: 400 μg OVA with 1 μg compound i.v.
Experimental: Subject animals, five mice per group, received an intravenous injection of 400 μg of ovalbumin (OVA) together with 1 μg of one of the compounds of the invention under examination or an equivalent volume of PBS diluted vehicle solution. A subset of mice were injected with 25 μg of the molecule MPL (Sigma-Aldrich; extracted from Salmonella Minnesota) solubilized in PBS.
Following the injections, blood was obtained from lateral tail veins, and PBLs were isolated, using standard methods. The PBLs were then stained, directly, […], with tetrameric, H-2 Kb/OVA 257-264, H-21 Kb complexes, following Palmowski, et al., J. Immunol., 168:4391-4398 (2002), incorporated by reference. The tetramers were prepared in accordance with Whilan, et al., J. Immunol., 163:4342-4348 (1999), incorporated by reference.

[5] = tested on: OVA specific IgG antibodies; test: Example D: OVA specific IgG antibodies in serum of immunized mice (ELISA); format: in vivo; details: ten days following immunization
Experimental: OVA protein coated ELISA plates, were prepared, using well known methods. Then, blood samples were taken, ten days following immunization, and serum was prepared.
The samples were taken from mice that had been immunized with OVA only, OVA and Compound 1, arabinitol ceramide, OVA and αGal-Cer, or OVA and Compound 2, glycerol ceramide. Additionally, mice were immunized with each of these schedules with MPL added. Serum IgG titers were measured by adding serial dilutions of mouse serum were detected using horseradish peroxidase (HRP) conjugated α-mouse IgG.

[6] = tested on: DCs obtained from the spleen; test: Example E: phenotyping of spleen DCs after tail vein injection (CD86); format: in vivo, mice; details: 1 μg tail vein, 24 h
Experimental: In brief, in each experiment, 1 μg of one of a selection of compounds of the invention was injected into the tail vein of subject mice. 24 h later spleen tissue was removed from the animals and gently teased through gauze into complete medium, supplemented with 5 mM of EDTA. Cells were enriched for CD11c by anti-CD11, magnetic beads using published techniques. Once enriched, they were assayed for maturation markers using antibody staining and flow cytometry. Non-specific staining was addressed by using an antibody specific for the Fc-RIII/II receptor.

human CD1d molecules = biological target: T1, human CD1d molecules (Homo sapiens, UniProt P15813); test: Dissociation of ligand from hCD1d, surface plasmon resonance with 9B Fab; format: binding; details: fold faster than α-GalCer
T1 construct: soluble human CD1d molecules; biotin (biotinylated); made in house
Excerpt: FIG. 1 Comparison of dissociation rate of OCH and α-GalCer. Dissociation of ligand from hCD1d. The indicated hCD1d (α-Gal Cer or OCH) complex was loaded onto a Surface Plasmon resonance (Biacore) sensor surface at t=0 and the amount of hCD1d remaining at the indicated time point measured using the Fab 9B.
Using the 9B Fab we looked at the rate of dissociation of all the tested compounds from soluble human CD1d molecules using surface plasmon resonance. Biotinylated CD1d-lipid complexes were immobilized to streptavidin-coated chips and the level of binding of the 9B Fab was measured over time. The loss of binding of the antibody over time was used to determine the rate of lipid dissociation from CD1d molecules.

DC = test: Viability of analog-pulsed DC co-cultured with iNKT cells (propidium iodide); format: cell-based, human; details: at concentration of maximal DC maturation
Experimental: Different analogs of α-GalCer as indicated or LPS were added to co-cultures of human DC and iNKT cells. (A) Maturation of the DC was assessed after 40 h, gating on CD11c positive cells. Histograms indicate the CD83 and CD86 profiles of DC from different treatments; the percentages indicate the percentage of CD83hi mature DC and the numbers in parenthesis, the mean fluorescence intensity of the population contained within the labeled gate. DC and iNKT cells were co-cultured in the presence of different analogs of α-GalCer for 24 hours. Supernatants were analyzed using ELISA for the presence of (B) IL-12p40 released by the DC and (C) IFN-γ from the iNKT cells. All the compounds tested induced weaker but significant cytokine production than α-GalCer, with the exception of arabinitolceramide. (D) Titration of α-GalCer, OCH or threitolceramide on DCs and co-culture with iNKT cells induces DC maturation in vitro. Cells were co-cultured in the presence of the indicated concentration of analog and the percentages of DC with increased CD83/CD80 are shown. […] Viability of α-GalCer or analog-pulsed DC was assessed after 40 h co-culture in the presence of iNKT cells by flow cytometry. Cells were stained with propidium iodide and the percentage of live CD11c gated cells remaining in the culture are shown.
as §3

rate of dissociation from hCD1d relative to α-GalCer (human CD1d molecules) [fold] | SMILES | DC maturation (upregulation of CD83, CD86 and CD38) (human DC; human DC with iNKT cell clone, 24 hours) | IL-12p40 released [1] | IFN-γ released by the iNKT cells [2] | skewing of cytokine response to Th2 (IL-4 and IFN-γ; compared with OCH) | potency of cytokine induction compared with α-GalCer (IL-4 and IFN-γ; equivalent doses) | cytokine release in serum (IL-4, IFN-γ, IL-12p40/70) (IL-4 and IFN-γ; wild type mice, 1 μg i.v., 2, 6 and 18-24 h) | antigen-specific CD8+ T cell response [3] | tumour growth (E.G7-OVA tumour cells) | induction of DC maturation markers (CD83, CD80, CD86, CD25, CD38) [4] | IL-12 potency, fold less potent than Compound 3 (p40 form of IL-12) | OVA specific response (OVA specific response) | OVA specific antibody response, adjuvant effect compared with MPL [5] | induction of CD86 on spleen DC in vivo [6] | concentration inducing maximal DC maturation (human DC; titration on DC, 48 h) [ng/mL] | DC viability (propidium iodide negative) compared with α-GalCer (DC)
 | CCCCCCCCCCCCCCCCCCCCCCCCCC(=O)N[C@@H](COCC(O)[C@@H](O)[C@@H](O)CO)[C@H](O)C(O)CCCCCCCCCCCCCC (stereo partly shown) [Compound 1, Arabinitol Ceramide] | only weakly functional | little IL-12p40 was detected | no detectable IFNγ | Neither compound showed a skewed Th2 cytokine response | less potent than α-GalCer at equivalent doses | detected in the serum with a similar time-course to that seen with α-GalCer | induced a significant CD8^+ T cell response after 6 days, although less potently than α-GalCer | little or no tumour growth | DC maturation markers are induced | approximately 1000 fold | enhancement of the OVA specific response | more effective as adjuvants than MPL | induced CD86 in vivo similarly |  | 
3.9 | CCCCCCCCCCCCCCCCCCCCCCCC(=O)N[C@@H](CO[C@H]1O[C@H](CO)[C@H](O)[C@H](O)[C@H]1O)[C@H](O)[C@H](O)CCCCC [OCH, (2S,3S,4R)-1-O-(α-D-galactopyranosyl)-N-tetracosanoyl-2-amino-1,3,4-nonanetriol] |  |  |  |  |  |  |  |  |  |  |  |  |  | 67 | significantly greater proportion of DC were propidium iodide negative
